Experimental data from patent US20250000855A1, “USE OF APOMORPHINE AS THERAPEUTIC AGENT FOR NECROPTOSIS-RELATED DISEASES” (INDUSTRY-ACADEMIC COOPERATION FOUNDATION, YONSEI UNIVERSITY, priority 2021, published 2025).

Experiments:
MLKL protein = biological target: T1, MLKL protein (Homo sapiens, UniProt Q8NB16); assay: Surface plasmon resonance (SPR) analysis, binding to MLKL protein; details: MLKL immobilized on CM5 chip, Biacore T200, 25° C., 10 mM HEPES pH 7.4
T1 construct: purchased Abcam ab241453
T1 sequence (Q8NB16 1-471): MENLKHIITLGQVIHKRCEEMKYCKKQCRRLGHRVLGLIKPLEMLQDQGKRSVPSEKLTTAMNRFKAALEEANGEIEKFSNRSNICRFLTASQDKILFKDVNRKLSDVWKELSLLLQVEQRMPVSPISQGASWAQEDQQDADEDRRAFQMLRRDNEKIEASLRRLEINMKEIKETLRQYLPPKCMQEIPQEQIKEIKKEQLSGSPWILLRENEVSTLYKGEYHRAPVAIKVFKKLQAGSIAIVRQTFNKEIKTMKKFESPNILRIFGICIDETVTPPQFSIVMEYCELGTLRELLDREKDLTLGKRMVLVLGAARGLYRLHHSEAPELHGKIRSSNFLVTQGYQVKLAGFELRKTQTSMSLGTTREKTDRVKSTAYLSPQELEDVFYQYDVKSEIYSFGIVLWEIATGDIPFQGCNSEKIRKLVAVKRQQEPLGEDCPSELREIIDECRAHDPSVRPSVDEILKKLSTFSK
Method: The interaction between MLKL and apomorphine (=APO) was detected through surface plasmon resonance (SPR) analysis using Biacore T200 (GE Healthcare). For pH scouting, a buffer consisting of 10 mM sodium acetate (pH 4.0 to 6.0) was used. MLKL protein (Abcam, ab241453), and MLKL N-term (amino acids 1-154) protein that had been purified in a laboratory were immobilized on the surface of a sensor chip CM5 (GE Healthcare) under scouted buffer conditions. To deduce an Rligand value, a coupling process was performed based on the molecular weights of MLKL, MLKL N-term domain (MW ligand), and APO (MW analyte). Oxidized (24 hr, RT incubation) and reduced (+DTT(DL-dithiothreitol)) forms of APO were injected into a running buffer (flow rate: 10 μl/min) consisting of 10 mM HEPES (pH 7.4) at 25° C. A sensorgram was recorded and analyzed in real time using control software provided by the Biacore T200 system itself. Six or more concentrations of APO were used in combination, and each KD value was derived. All run data was calculated using BIAevaluation Software (GE Healthcare).
SPR analysis was used to analyze the interaction pattern between APO and the MLKL protein (Experimental Method 1-10). […] Here, the analysis was performed by binding MLKL and the MLKL N-term domain protein immobilized on a CM5 chip with APO having six concentrations.

MLKL oligomerization = MLKL oligomerization (tetramer and octamer bands) by non-reducing or reducing SDS-PAGE; type: cell-based, human; details: cytoplasmic and membrane fractions, necroptosis induced with TBZ, FIG. 2 / FIG. 6A
Method: Cells were pretreated with Z-VAD (invivoGen, tlrl-vad) and a compound for 1 hour, and necroptosis was induced with TNF-α (ATGen, TNF0501) and BV6 (Biovision, B1332-5) for the indicated time. The prepared cells were appropriately treated according to analysis (Z-VAD: carbobenzoxy-valyl-alanyl-aspartyl, TNF-α: tumor necrosis factor-α, BV6: 4,4′-(1,6-hexanediyl)bis[N-methyl-L-alanyl-(2S)-2-cyclohexylglycyl-L-prolyl-β-phenyl-L-phenylalaninamide)
Cells were treated with a drug candidate and then collected using centrifugation at 4° C. and 1,500×g for 5 minutes. A supernatant was centrifuged again at 4° C. and 1,500×g for 5 minutes to remove remaining debris, concentrated at 4° C. and 14,000×g for 30 minutes using Amicon ultra-0.5 centrifugal filter unit 10K (Millipore, UFC501096), and stored. […] The extracted protein concentration was measured using a bicinchoninic acid (BCA) protein assay kit (Thermo Fisher Scientific, 23225). […]
To test whether the tetramer and octamer formation of p-MLKL for pore formation in the cell membrane is inhibited by apomorphine (APO), cells that had been treated with each molecule for the indicated time were separated into cytoplasmic and membrane fractions and analyzed through non-reducing or reducing sodium dodecyl sulfate-polyacrylamide gel electrophoresis (SDS-PAGE), and then investigated with specific antibodies (Experimental Method 1-6). […]

- Kd (MLKL protein): 12.7 nM
SMILES: CN1CCc2cccc3c2[C@H]1Cc1ccc(O)c(O)c1-3 [APO, apomorphine]
- intensities of the tetramer and octamer bands of MLKL (MLKL oligomerization): decreased
